“Also recorded” adds a separate entry of the source. Like-named read-outs stand apart in the source and are kept apart here.
What was measured:
[1] = system: pentylenetetrazole (Metrazol) induced seizures; experiment: Subcutaneous pentylenetetrazole (Metrazol) seizure threshold test (Met) in mice; assay type: in vivo, male Carworth Farms number-1 mice; conditions: for (Maximum Ineffective) Intraperitoneal Dose, Met: Table 7, value in parentheses = maximum ineffective dose; for minimal effective dose: Mus musculus, ip; for Sc MET: mice i.p.
Experimental: (§1) Compounds were screened for anticonvulsant activity in male Carworth Farms number-1 mice. Test solutions of all compounds were prepared in 30% polyethylene glycol 400, and animals were dosed intraperitoneally at either 30 minutes or 4 hours prior to testing. Testing was conducted on four mice at each of three dose levels (30, 100, and 300 mg/kg).
(§2) In the subcutaneous pentylenetetrazole (Metrazol) seizure threshold test(met), 85 mg/kg pentylenetetrazole was administered as a 0.5% solution in the posterior midline. Protection in this test was defined as a failure to observe a single episode of clonic spasms of at least 5 s duration during the 30 minute period following administration of the convulsive agent.
as §1, with “Biological testing--Compounds” for “Compounds”, “number-one” for “number-1”, “min” for “minutes”, “h” for “hours”
as §2, with “test (Met),” for “test(met),”, “min” for “minute”

[2] = system: neurological deficit (rotorod); experiment: Rotorod test for neurological deficit (TOX) in mice; assay type: in vivo, male Carworth Farms number-1 mice
Experimental: as §1
(§3) Animals were also tested for neurological deficit using the rotorod. After treatment, the animal was placed on a 1 inch diameter knurled plastic rod rotating at 6 rpm. Neurologic deficit was defined as the failure of the animal to remain on the rod for 1 minute.
as §1, with “Biological testing--Compounds” for “Compounds”, “number-one” for “number-1”, “min” for “minutes”, “h” for “hours”
(§4) Animals were also tested for neurological deficit using the rotorod. After treatment, the animal was placed on a 1 inch diameter knurled plastic rod rotating at 6 rpm. Neurologic deficit was defined as the failure of the animal to remain on the rod for 1 min.

[3] = target: T1, strychnine-insensitive glycine binding site of the NMDA receptor (Rattus norvegicus, UniProt P35439); experiment: Inhibition of [3H]glycine specific binding (strychnine-insensitive) in rat cerebral cortex membranes; conditions: 10 uM compound
T1 construct: Membranes were prepared from rat cerebral cortex; from tissue; host or cells: rat cerebral cortex, "buffy coat" membranes
Experimental: Binding Studies--Inhibition of [^3 H]glycine specific binding was assayed using [^3 H]glycine (43 Ci/mmol) obtained from DuPont-New England Nuclear. […] Membranes were prepared from rat cerebral cortex and assays were conducted in Na-free 50 mM HEPES (Sigma) at pH 7.4. Membranes were incubated in a final volume of 1 ml with 20 nM [^3 H]glycine and a 10 uM concentration of the test compound. Although experience has shown that [^3 H]glycine binding in this preparation is strychnine insensitive, 10 uM strychnine was added to the assay mixtures to eliminate the possibility that any effects studied could be mediated through a strychnine-sensitive process. Incubation was continued for 20 min at 4° C. Non-specific binding was determined in the presence of 1 mM glycine and subtracted. All conditions were tested in triplicate in 3 different assays. Binding was terminated using a Brandel M-24C cell harvester employing rapid filtration through GF/C glass fiber filters pre-soaked in 1% (V/V) polyethylenimine. Filters were washed twice with 5 ml buffer cooled to 4° C. Radioactivity bound to the filters was determined with a Beckman LS-500OTD liquid scintillation counter.

[4] = system: seizures induced by electroshock and pentylenetetrazole; experiment: Anticonvulsant testing, overall (MES and Met); assay type: in vivo, male Carworth Farms number-1 mice; conditions: for anticonvulsant activity (words) / minimal effective dose: mice, intraperitoneal; for minimal effective dose: Mus musculus, ip, read-out: dose level with anticonvulsant activity (test not given); for CLASS: Phase I Identification: mice, i.p., classes not defined in the patent
Experimental: as §1
(§5) Maximal electroshock seizures (MES) were elicited with a 60 cycle alternatiing current of 50-mA intensity (five to seven times that necessary to evoke minimal electroshock threshold seizures). Current was delivered via corneal electrodes for 0.2 s. A drop of 0.9% saline was instilled in the eye prior to application of electrodes. Abolition of the hindlimb tonic extension component of the seizure was defined as protection in the MES test.
as §2
as §1, with “Biological testing--Compounds” for “Compounds”, “number-one” for “number-1”, “min” for “minutes”, “h” for “hours”
as §5, with “alternating” for “alternatiing”
as §2, with “test (Met),” for “test(met),”, “min” for “minute”

[5] = system: maximal electroshock seizures (MES); experiment: animal or person; assay type: in vivo, male Carworth Farms number-1 mice; conditions: for MES: mice i.p.; for minimal effective dose: Mus musculus, ip
Experimental: as §1, §5
as §1, with “Biological testing--Compounds” for “Compounds”, “number-one” for “number-1”, “min” for “minutes”, “h” for “hours”
as §5, with “alternating” for “alternatiing”

[6] = Rotorod test for neurological deficit (TOX) in mice; assay type: in vivo, male Carworth Farms number-1 mice; conditions: mouse, in vivo, ip
Experimental: as §1, §3
as §1, with “Biological testing--Compounds” for “Compounds”, “number-one” for “number-1”, “min” for “minutes”, “h” for “hours”
as §4

[7] = Table 7, value without parentheses = effective dose (neurologic deficit)
[8] = Table 7, value without parentheses = effective dose, read-out: Effective Intraperitoneal Dose, Met
[9] = mice, intraperitoneal, read-out: dose active in Met test
[10] = Table 7, value without parentheses = effective dose, read-out: Effective Intraperitoneal Dose, MES
[11] = mice, intraperitoneal, read-out: dose active in MES test

Structure (SMILES)	[3H]glycine binding inhibition [3]	anticonvulsant activity (words) [4]	minimal effective dose [1, 8]	minimal effective dose [1, 9]	MES ([5]; 30 minutes, 30 mg/kg)	MES ([5]; 30 minutes, 100 mg/kg)	MES ([5]; 30 minutes, 300 mg/kg)	MES ([5]; 4 hours, 30 mg/kg)	MES ([5]; 4 hours, 100 mg/kg)	MES ([5]; 4 hours, 300 mg/kg)	Sc MET ([1]; 30 minutes, 30 mg/kg)	Sc MET ([1]; 30 minutes, 100 mg/kg)	Sc MET ([1]; 30 minutes, 300 mg/kg)	Sc MET ([1]; 4 hours, 30 mg/kg)	Sc MET ([1]; 4 hours, 100 mg/kg)	Sc MET ([1]; 4 hours, 300 mg/kg)	CLASS [4]	other results
O=C(O)c1cccc(C(=O)O)n1 [2,6-pyridine dicarboxylic acid, pyridine-2,6-dicarboxylic acid]	no glycine displacement; also recorded: did neither	did neither																(Maximum Ineffective) Intraperitoneal Dose, Met [1]: 300 mg/kg; Effective Intraperitoneal Dose, Rotorod [2, 7]: 300 mg/kg; crossing of the blood-brain barrier ([2]; evidenced by the rotorod test): did cross the blood-brain barrier; dose causing neurological deficit on rotorod ([2]; mice, intraperitoneal): 300 mg/kg
CCOC(=O)c1cccc(C(=O)OCC)n1 [2,6-pyridine-di-(ethyl carboxylate), 2,6-pyridine-di(ethyl carboxylate)]	potent [^3 H]glycine displacement	had anticonvulsant activity	100 mg/kg	100 mg/kg														Effective Intraperitoneal Dose, Rotorod ([2]; mouse, in vivo, ip): 300 mg/kg; dose causing neurological deficit on rotorod ([2]; mouse, in vivo, ip): 300 mg/kg; [3H]glycine binding inhibition ([3]; listed as diethyl ester of pyridine-2,6-dicarboxylic acid): inhibited glycine binding; minimal effective dose [4]: 100 mg/kg
Nc1cc(C(=O)O)nc2cc(Cl)cc(Cl)c12 [4-amino-5,7-dichloro-2-quinoline carboxylate acid]		lack of anticonvulsive activity			0/1	0/3	0/1	0/1	0/3	0/1	0/1	0/1	0/1	0/1	0/1	0/1	3	
COC(=O)c1cc(N)c2c(Cl)cc(Cl)cc2n1 [4-amino-5,7-dichloro-2-quinoline carboxylate methyl ester]					0/1	0/3	0/1	0/1	1/3	1/1	0/1	1/1	0/1	0/1	0/1	0/1	1	
CNc1cc(C(=O)OC)nc2cc(Cl)cc(Cl)c12 [4-methylamino-5,7-dichloro quinoline 2-carboxylate methyl ester]		inactive			0/1	0/3	0/1	0/1	0/3	0/1	0/1	0/1	0/1	0/1	0/1	0/1	3	anticonvulsant activity (words) ([4]; listed as 4-methylamino-5,7-dichloro quinoline 2-carboxylate methyl ester): lack of anticonvulsant activity; anticonvulsant activity (words) ([4]; listed as 5,7-di-Cl-4-methylamino-2-methyl ester): inactive in anticonvulsant testing
CCOC(=O)c1cc(O)c2c(Cl)cc(Cl)cc2n1 [5,7 0-di-Cl-2-ethyl ester, 5,7-dichloro-kynurenate ethyl ester]		inactive																
CNc1cc(C(=O)O)nc2cc(Cl)cc(Cl)c12 [5,7-di-Cl-4-methylamino-kyn-2-COOH, 4-methylamino-5,7-dichloro-2-quinoline carboxylic acid]	best inhibitor of [^3 H]glycine binding		300 mg/kg		0/1	0/3	1/1	0/1	0/3	0/1	0/2	0/1	1/1	0/1	0/1	0/1	2	minimal effective dose [5, 10]: 100 mg/kg; minimal effective dose [5, 11]: 100 mg/kg; Effective Intraperitoneal Dose, Rotorod ([2]; mouse, in vivo, ip): 100 mg/kg; dose causing neurological deficit on rotorod ([2]; mouse, in vivo, ip): 300 mg/kg; TOX comment ([2]; mouse, in vivo, ip, 300 mg/kg): Unable to hold onto rotorod; minimal effective dose [4]: ≤ 100 mg/kg
CCOC(=O)c1cc2cc(Cl)ccc2[nH]1 [5-Cl-2-ethyl ester]	inactive	inactive; also recorded: abolished activity																
O=C(O)c1cc2cc(Cl)ccc2[nH]1 [5-Cl-indole-2-COOH, 5-chloro-indole-2-carboxylic acid]	binding competition similar to that seen with the 5-fluoro derivative		100 mg/kg	100 mg/kg														Met activity ([1]; mice, intraperitoneal): Met protection; Effective Intraperitoneal Dose, Rotorod ([2]; mouse, in vivo, ip): 300 mg/kg; dose causing neurological deficit on rotorod ([2]; mouse, in vivo, ip): 300 mg/kg
CCOC(=O)c1cc2cc(O)ccc2[nH]1 [5-hydroxyl-2-ethyl ester]	binding activity	no CNS effects																
COc1ccc2[nH]c(C(=O)O)cc2c1 [5-methoxy-indole-2-COOH]		no anticonvulsant activity																(Maximum Ineffective) Intraperitoneal Dose, Met [1]: 300 mg/kg; Effective Intraperitoneal Dose, Rotorod ([2]; mouse, in vivo, ip): 300 mg/kg
CCOC(=O)c1cc2cc(OC)ccc2[nH]1 [5-methoxy-indole-2-ethyl ester, 5-methoxy-indole-2-ethyl carboxylate]	did not compete for [^3 H]glycine binding; also recorded: did not inhibit [^3 H]glycine binding		100 mg/kg	100 mg/kg														minimal effective dose [5, 10]: 300 mg/kg; minimal effective dose [5, 11]: 300 mg/kg; Effective Intraperitoneal Dose, Rotorod [2, 7]: 300 mg/kg; dose causing neurological deficit on rotorod ([2]; mice, intraperitoneal): 300 mg/kg
Cc1cc2c(O)cc(C(=O)O)nc2cc1Cl [6-CH3-7-Cl-2-COOH]	glycine-binding inhibition	no anticonvulsant activity																
Cc1c(Cl)ccc2c(O)cc(C(=O)O)nc12 [7-Cl-8-methyl-kyn-2-COOH]			300 mg/kg	300 mg/kg														NOAEL [6]: 300 mg/kg
CCOC(=O)c1cc(O)c2ccc(Cl)cc2n1 [7-Cl-kyn-2-ethyl ester]			300 mg/kg	300 mg/kg														NOAEL [6]: 300 mg/kg
CCCCOC(=O)c1cc(NC)c2c(Cl)cc(Cl)cc2n1 [Butyl 4-Methylamino-5,7-dichloro-2-quinoline Carboxylate]		inactive			0/1	0/3	0/1	0/1	0/3	0/1	0/1	0/1	0/1	0/1	0/1	0/1	31	anticonvulsant activity (words) ([4]; listed as 5,7-di-Cl-4-methylamino-2-butyl ester): inactive in anticonvulsant testing; anticonvulsant activity (words) ([4]; listed as ester-4-methylamino-5,7-dichloro quinoline-2-carboxylate n-butyryl): lack of anticonvulsant activity
